Data as given in PubChem BioAssay (NCI).
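Assay format: 96-well plates, 48-hour exposure. The concentration for 50% growth inhibition is given as GI50. TGI is the concentration that stops growth completely.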

What was measured:
Experiment in all cases: inhibition of tumour cell growth, NCI panel, 48 h
[1] = test system: SR leukemia
[2] = test system: SW-620 colon
[3] = test system: HCT-116 colon
[4] = test system: SK-MEL-2 melanoma
[5] = test system: OVCAR-3 ovarian
[6] = test system: K-562 leukemia
[7] = test system: 786-0 renal
[8] = test system: KM12 colon
[9] = test system: ACHN renal
[10] = test system: UACC-62 melanoma
[11] = test system: NCI-H522 lung
[12] = test system: MDA-MB-231 breast
[13] = test system: A498 renal
[14] = test system: SK-OV-3 ovarian
[15] = test system: BT-549 breast
[16] = test system: T-47D breast
[17] = test system: RPMI-8226 leukemia
[18] = test system: TK-10 renal
[19] = test system: MALME-3M melanoma
[20] = test system: OVCAR-5 ovarian
[21] = test system: SN12C renal
[22] = test system: OVCAR-4 ovarian
[23] = test system: SK-MEL-5 melanoma
[24] = test system: A549 NSCLC
[25] = test system: HOP-92 NSCLC
[26] = test system: MCF7 breast
[27] = test system: SNB-19 CNS
[28] = test system: PC-3 prostate
[29] = test system: EKVX NSCLC
[30] = test system: HCT-15 colon
[31] = test system: SK-MEL-28 melanoma
[32] = test system: NCI-H460 lung
[33] = test system: NCI-H23 lung
[34] = test system: IGROV1 ovarian
[35] = test system: SF-539 CNS
[36] = test system: HS 578T breast
[37] = test system: RXF 393 renal
[38] = test system: HT29 colon
[39] = test system: NCI-H226 lung
[40] = test system: MDA-MB-435
[41] = test system: U251 CNS
[42] = test system: COLO 205 colon
[43] = test system: CAKI-1 renal
[44] = test system: OVCAR-8 ovarian
[45] = test system: HOP-62 NSCLC
[46] = test system: MOLT-4 leukemia
[47] = test system: LOX IMVI melanoma
[48] = test system: UACC-257 melanoma
[49] = test system: SF-268 CNS
[50] = test system: UO-31 renal
[51] = test system: M14 melanoma
[52] = test system: NCI/ADR-RES ovarian
[53] = test system: SF-295 CNS

CC(=O)c1c(C(F)(F)F)n([O-])c2ccccc2[n+]1=O
GI50 [1]: 167 nM | TGI [1]: 2300 nM | GI50 [2]: 1570 nM | TGI [2]: 13300 nM | GI50 [3]: 1550 nM | TGI [3]: 10500 nM | GI50 [4]: 4560 nM | TGI [4]: > 100000 nM | GI50 [5]: 746 nM | TGI [5]: 2610 nM | GI50 [6]: 1260 nM | TGI [6]: > 100000 nM | GI50 [7]: 2860 nM | TGI [7]: 15300 nM | GI50 [8]: 1190 nM | TGI [8]: 3430 nM | GI50 [9]: 1050 nM | TGI [9]: 12300 nM | GI50 [10]: 700 nM | TGI [10]: 3020 nM | GI50 [11]: 2460 nM | TGI [11]: > 100000 nM | GI50 [12]: 1270 nM | TGI [12]: 3610 nM | GI50 [13]: 1560 nM | TGI [13]: 4480 nM | GI50 [14]: 3170 nM | TGI [14]: 23900 nM | GI50 [15]: 2480 nM | TGI [15]: 9060 nM | GI50 [16]: 748 nM | TGI [16]: 4020 nM | GI50 [17]: 572 nM | TGI [17]: 3620 nM | GI50 [18]: 1200 nM | TGI [18]: 5590 nM | GI50 [19]: 652 nM | TGI [19]: 3060 nM | GI50 [20]: 1180 nM | TGI [20]: 3670 nM | GI50 [21]: 1070 nM | TGI [21]: 3170 nM | GI50 [22]: 969 nM | TGI [22]: 3900 nM | GI50 [23]: 494 nM | TGI [23]: 1870 nM | GI50 [24]: 2280 nM | TGI [24]: 14300 nM | GI50 [25]: 1220 nM | TGI [25]: 4350 nM | GI50 [26]: 873 nM | TGI [26]: 4080 nM | GI50 [27]: 4770 nM | TGI [27]: 18500 nM | GI50 [28]: 1300 nM | TGI [28]: 10800 nM | GI50 [29]: 3470 nM | TGI [29]: 8010 nM | GI50 [30]: 1290 nM | TGI [30]: 50400 nM | GI50 [31]: 3480 nM | TGI [31]: 18000 nM | GI50 [32]: 857 nM | TGI [32]: 10800 nM | GI50 [33]: 1000 nM | TGI [33]: 2430 nM | GI50 [34]: 1020 nM | TGI [34]: 3780 nM | GI50 [35]: 2000 nM | TGI [35]: 5380 nM | GI50 [36]: 1970 nM | TGI [36]: 6500 nM | GI50 [37]: 1570 nM | TGI [37]: 6030 nM | GI50 [38]: 1300 nM | TGI [38]: 8300 nM | GI50 [39]: 1460 nM | TGI [39]: 3910 nM | GI50 [40]: 1200 nM | TGI [40]: 4030 nM | GI50 [41]: 2170 nM | TGI [41]: 14500 nM | GI50 [42]: 2160 nM | TGI [42]: 7270 nM | GI50 [43]: 1210 nM | TGI [43]: 3800 nM | GI50 [44]: 2960 nM | TGI [44]: > 100000 nM | GI50 [45]: 2340 nM | TGI [45]: 11900 nM | GI50 [46]: 613 nM | TGI [46]: > 100000 nM | GI50 [47]: 1310 nM | TGI [47]: 4580 nM | GI50 [48]: 2770 nM | TGI [48]: 13600 nM | GI50 [49]: 1490 nM | TGI [49]: 6130 nM | GI50 [50]: 2690 nM | TGI [50]: 12100 nM | GI50 [51]: 1630 nM | TGI [51]: 7470 nM | GI50 [52]: 1490 nM | TGI [52]: 2930 nM | GI50 [53]: 1070 nM | TGI [53]: 4530 nM
